The numbers were not newly measured in patent US6433221B1 (RPC Inc., priority 1998, dated 2002), which cites them from elsewhere.

For data set [1] the following is noted: water in cyclohexanone; for mol % CHxO: balance.
The conditions of data set [2]: cyclohexanone in water; for mol % H2O: balance.

SMILES strings stand for the structures. Like-named read-outs stand apart in the source and are kept apart here.

Regarding `O` [Water], the “mol % H2O” value is 25.1% mol % in data set [1] (20 °C); 25.6% mol % in data set [1] (25 °C); 26.1% mol % in data set [1] (30 °C); 28.7% mol % in data set [1] (50 °C); 32.6% mol % in data set [1] (70 °C); 38.5% mol % in data set [1] (90 °C). Further, the “wt % H2O” value is 5.7% wt % in data set [1] (20 °C); 5.7 wt % in data set [1] (20 °C, listed as water); 5.9% wt % in data set [1] (25 °C); 6.0% wt % in data set [1] (30 °C); 6.8% wt % in data set [1] (50 °C); 8.1% wt % in data set [1] (70 °C). For the same molecule, the “wt % H2O” value in data set [1] (90 °C) is on record as 10.2% wt %. Moreover, the “mol % CHxO” value in data set [1] (20 °C) was 74.9% mol %; in data set [1] (25 °C), 74.4% mol %; in data set [1] (30 °C) it was 73.9% mol %; in data set [1] (50 °C) it was 71.3% mol %; in data set [1] (70 °C), 67.4% mol %; in data set [1] (90 °C), 61.5% mol %.

With `O=C1CCCCC1` [Cyclohexanone], the “mol % CHxO” value in data set [2] (20 °C) was 1.98% mol %; in data set [2] (25 °C), 1.85% mol %; in data set [2] (30 °C), 1.73% mol %; in data set [2] (50 °C), 1.43% mol %; in data set [2] (70 °C), 1.34% mol %; in data set [2] (90 °C), 1.44% mol %. In addition, the “wt % CHxO” value is listed as 10.00% wt % in data set [2] (20 °C); 9.39% wt % in data set [2] (25 °C); 8.83% wt % in data set [2] (30 °C); 7.39% wt % in data set [2] (50 °C); 6.95% wt % in data set [2] (70 °C); 7.44% wt % in data set [2] (90 °C). The “mol % H2O” value in data set [2] (20 °C) is listed as 98.02% mol %; in data set [2] (25 °C), 98.15% mol %; in data set [2] (30 °C), 98.27% mol %; in data set [2] (50 °C) it was 98.57% mol %; in data set [2] (70 °C), 98.66% mol %; in data set [2] (90 °C), 98.56% mol %.
